Like-named read-outs stand apart in the source and are kept apart here.
Biological target: T1, hTLR8 (Homo sapiens, UniProt Q9NR97)
T1 construct: host or cells: HEK293 cells stably transfected with hTLR8
T1 sequence (Q9NR97 27-1041): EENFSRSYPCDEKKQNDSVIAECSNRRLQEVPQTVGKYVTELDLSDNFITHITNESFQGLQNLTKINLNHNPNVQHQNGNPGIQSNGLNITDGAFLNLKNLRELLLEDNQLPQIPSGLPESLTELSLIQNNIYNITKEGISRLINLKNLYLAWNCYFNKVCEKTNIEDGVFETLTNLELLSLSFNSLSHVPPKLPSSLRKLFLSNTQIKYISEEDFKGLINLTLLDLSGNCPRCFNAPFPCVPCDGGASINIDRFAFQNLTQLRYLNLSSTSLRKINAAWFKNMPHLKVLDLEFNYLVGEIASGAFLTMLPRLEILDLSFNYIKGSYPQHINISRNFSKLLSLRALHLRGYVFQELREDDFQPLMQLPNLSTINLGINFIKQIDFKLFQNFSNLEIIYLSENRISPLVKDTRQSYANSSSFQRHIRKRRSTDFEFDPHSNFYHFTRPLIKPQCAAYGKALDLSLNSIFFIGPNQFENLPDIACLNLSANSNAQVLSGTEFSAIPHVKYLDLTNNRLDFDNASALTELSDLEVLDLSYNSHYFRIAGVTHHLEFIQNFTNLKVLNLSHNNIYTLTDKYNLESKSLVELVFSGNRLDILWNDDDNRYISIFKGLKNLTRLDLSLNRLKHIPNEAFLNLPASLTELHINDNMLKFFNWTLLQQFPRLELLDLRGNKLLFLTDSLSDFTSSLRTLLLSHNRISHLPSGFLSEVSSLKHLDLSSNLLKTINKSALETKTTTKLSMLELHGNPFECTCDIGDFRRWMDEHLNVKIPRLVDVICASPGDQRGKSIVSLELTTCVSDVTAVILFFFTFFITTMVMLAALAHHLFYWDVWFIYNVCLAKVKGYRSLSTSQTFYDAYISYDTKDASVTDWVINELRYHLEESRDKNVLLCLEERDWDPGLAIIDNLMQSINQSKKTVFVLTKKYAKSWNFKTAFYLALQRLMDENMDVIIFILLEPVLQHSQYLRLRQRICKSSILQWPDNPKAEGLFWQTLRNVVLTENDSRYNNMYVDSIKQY
Assay: HEK-293 hTLR8 transfectant antagonist assay (NF-κB driven SEAP reporter)
Type: cell-based
Settings: hTLR8 reporter cells
Procedure: The HEK-293 hTLR transfectant assay employs HEK293 cells stably transfected with various hTLRs and transiently co-transfected with a plasmid containing an NF-κB driven secreted embryonic alkaline phosphate (SEAP) reporter gene. Stimulation of TLRs activates their downstream signaling pathways and induces nuclear translocation of the transcription factor NF-κB. Reporter gene activity is then measured using a spectrophotometric assay. To measure antagonist activity, human embryonic kidney (HEK) cells (e.g., 293XL-hTLR8 cells available from InvivoGen, San Diego, Calif.) are prepared according to supplier's instructions and incubated with various concentrations of test compound overnight. The amount of induced […] is measured by reading the absorbance at 650 nm. The compounds of the invention have an MC50 of 25 μM or less, wherein MC50 is defined as the concentration at which 50% of maximum induction is seen. For the TLR8 antagonist assays, cells are transiently transfected with the reporter gene on Day 1 per the supplier's instructions. Antagonist compounds are added to the cultures on Day 2 followed by addition of a TLR8 agonist approximately 2 hours later. Cultures are incubated overnight and SEAP activity is measured on Day 3. In a typical assay, 50,000 HEK239 hTLR8 cells are seeded per culture well and transiently transfected with the SEAP reporter gene. Antagonists are added to cultures in culture medium and […] DMSO over a concentration range of 0.1 nanomolar to 10 micromolar. TLR8 agonists are added to cultures 2 hours later at a fixed concentration (e.g., 1 micromolar or 10 micromolar of Compound A) and cultures are then incubated for 16-24 hrs at 37° C. in a humidified CO incubator. Antagonists are also evaluated for activity in the absence of agonist. TLR8 antagonist activity was measured in a hTLR8 assay format, measuring IC50 values. […] IC50s were then calculated.

[1] = IC50, nM, vs. VTX-378 1 μM, TLR8 agonist VTX-378 (Compound A) 1 μM
[2] = IC50, nM, vs. VTX-378 10 μM, TLR8 agonist VTX-378 (Compound A) 10 μM
[3] = TLR8 agonist VTX-378 (Compound A) 0.5 μM, read-out: IC50, nM, vs. VTX-378 0.5 μM
[4] = IC50, nM, vs. 3M002 10 μM, agonist 3M002 10 μM
[5] = IC50, nM, vs. 3M002 1 μM, agonist 3M002 1 μM

Structure (SMILES) | IC50 [1] | IC50 [2] | IC50 [3] | IC50 [4] | IC50 [5]
CCOC(=O)C1=Cc2cc(-c3ccc(C(=O)N4CCCC4)cc3)ccc2N=C(NOC)C1 [Compound 2930] | ≥ 10000 nM | ≥ 10000 nM |  |  | 
CCOC(=O)C1=Cc2cc(-c3cccc(C(F)(F)F)c3)ccc2N=C(N)C1 [Compound 3059, Ethyl 2-amino-7-[3-(trifluoromethyl)phenyl]-3H-1-benzazepine-4-carboxylate] | 1000 to 10000 nM | ≥ 10000 nM |  | ≥ 10000 nM | 
CCOC(=O)C1=Cc2cc(Oc3ccc(C(=O)N(C)C)cc3)ccc2N=C(N)C1 [Compound 3093] | ≥ 10000 nM | ≥ 10000 nM |  | ≥ 10000 nM | 
CCOC(=O)C1=Cc2cc(-c3ccccc3C)ccc2N=C(N)C1 [Compound 3096, Ethyl 2-amino-7-(2-methylphenyl)-3H-1-benzazepine-4-carboxylate] | 1000 to 10000 nM | ≥ 10000 nM |  |  | 
CCOC(=O)C1=Cc2cc(Nc3ccccc3)ccc2N=C(N)C1 [Compound 3097] | 1000 to 10000 nM |  | < 1000 nM | 1000 to 10000 nM | 
CCOC(=O)C1=Cc2cc(-c3ccc(OC)cc3)ccc2N=C(N)C1 [Compound 3098, Ethyl 2-amino-7-(4-methoxyphenyl)-3H-1-benzazepine-4-carboxylate] | ≥ 10000 nM |  | 1000 to 10000 nM | 1000 to 10000 nM | 
CCOC(=O)C1=Cc2cc(-c3ccc(C(=O)OCC)cc3)ccc2N=C(N)C1 [Compound 3101, Ethyl 2-amino-7-[4-(ethoxycarbonyl)phenyl]-3H-1-benzazepine-4-carboxylate] | ≥ 10000 nM |  | 1000 to 10000 nM | ≥ 10000 nM | 
CCOC(=O)C1=Cc2cc(Oc3ccc(OC)cc3)ccc2N=C(N)C1 [Compound 3125] | 1000 to 10000 nM |  | 1000 to 10000 nM | ≥ 10000 nM | 1000 to 10000 nM
CCOC(=O)C1=Cc2cc(-c3ccccc3C(F)(F)F)ccc2N=C(N)C1 [Compound 3126, Ethyl 2-amino-7-[2-(trifluoromethyl)phenyl]-3H-1-benzazepine-4-carboxylate] | 1000 to 10000 nM |  | < 1000 nM | 1000 to 10000 nM | < 1000 nM
CCOC(=O)C1=Cc2cc(Oc3ccccc3C)ccc2N=C(N)C1 [Compound 3128] | 1000 to 10000 nM |  | < 1000 nM | 1000 to 10000 nM | < 1000 nM
CCOC(=O)C1=Cc2cc(-c3ccccc3C(C)C)ccc2N=C(N)C1 [Compound 3141, Ethyl 2-amino-7-(2-isopropylphenyl)-3H-1-benzazepine-4-carboxylate] | 1000 to 10000 nM |  | < 1000 nM |  | 
CCOC(=O)C1=Cc2cc(-c3cccc(Cl)c3Cl)ccc2N=C(N)C1 [Compound 3155, Ethyl 2-amino-7-(2,3-dichlorophenyl)-3H-1-benzazepine-4-carboxylate] | ≥ 10000 nM |  | 1000 to 10000 nM |  | 
CCOC(=O)C1=Cc2cc(-c3c(C)cccc3C)ccc2N=C(N)C1 [Compound 3162] | 1000 to 10000 nM |  | 1000 to 10000 nM |  | 
CCOC(=O)C1=Cc2cc(-c3ccc(N4CCCC4=O)cc3)ccc2N=C(N)C1 [Compound 3190, Ethyl 2-amino-7-[4-(2-oxopyrrolidin-1-yl)phenyl]-3H-1-benzazepine-4-carboxylate] | 1000 to 10000 nM |  | < 1000 nM |  | 
CCOC(=O)C1=Cc2cc(C(=O)OC(C)C)ccc2N=C(N)C1 [Compound 3197] | 1000 to 10000 nM | 1000 to 10000 nM |  |  | 
CCOC(=O)C1=Cc2cc(C3=CCN(C(=O)N4CCCC4)CC3)ccc2N=C(N)C1 [Compound 3254] | 1000 to 10000 nM |  | 1000 to 10000 nM |  | 
CCOC(=O)C1=Cc2cc(-c3cccc(OC)c3)ccc2N=C(N)C1 [Compound 3267, Ethyl 2-amino-7-(3-methoxyphenyl)-3H-1-benzazepine-4-carboxylate] | 1000 to 10000 nM |  | 1000 to 10000 nM | 1000 to 10000 nM | 
CCOC(=O)C1=Cc2cc(-c3ccc(C)cc3)ccc2N=C(N)C1 [Compound 3272, Ethyl 2-amino-7-(4-methylphenyl)-3H-1-benzazepine-4-carboxylate] | 1000 to 10000 nM |  | 1000 to 10000 nM | 1000 to 10000 nM | < 1000 nM

The next lines start with the values.

IC50 [1] | IC50 [2] | IC50 [3] | IC50 [4] | IC50 [5] | Structure (SMILES)
< 1000 nM | ≥ 10000 nM |  |  |  | CCOC(=O)C1=Cc2cc(-c3ccc(C(=O)N(C)C)cc3)ccc2N=C(N)C1 [Compound 2937, Ethyl 2-amino-7-[4-(dimethylcarbamoyl)phenyl]-3H-1-benzazepine-4-carboxylate]
1000 to 10000 nM | ≥ 10000 nM |  |  |  | CCOC(=O)C1=Cc2cc(Oc3ccccc3)ccc2N=C(N)C1 [Compound 2946]
1000 to 10000 nM | ≥ 10000 nM | 1000 to 10000 nM |  |  | CCOC(=O)C1=Cc2cc(-c3ccc(C(=O)N4CCCC4)cc3)ccc2N=C(NCCO)C1 [Compound 2968]
1000 to 10000 nM | ≥ 10000 nM |  |  |  | CC(C)NC(=O)C1=Cc2cc(-c3ccc(C(=O)N4CCCC4)cc3)ccc2N=C(N)C1 [Compound 3009, 2-Amino-N-isopropyl-7-[4-(pyrrolidin-1-ylcarbonyl)phenyl]-3H-1-benzazepine-4-carboxamide]
1000 to 10000 nM | ≥ 10000 nM |  | 1000 to 10000 nM |  | CCOC(=O)C1=Cc2cc(Oc3cccc(C(F)(F)F)c3)ccc2N=C(N)C1 [Compound 3046]
1000 to 10000 nM | ≥ 10000 nM |  |  |  | CCOC(=O)C1=Cc2cc(-c3ccc(S(=O)(=O)N(C)C)cc3)ccc2N=C(N)C1 [Compound 3055, Ethyl 2-amino-7-{4-[(dimethylamino)sulfonyl]phenyl}-3H-1-benzazepine-4-carboxylate]
1000 to 10000 nM | ≥ 10000 nM |  |  |  | CCOC(=O)C1=Cc2cc(-c3cccc(C(=O)N(C)C)c3)ccc2N=C(N)C1 [Compound 3058, Ethyl 2-amino-7-[3-(dimethylcarbamoyl)phenyl]-3H-1-benzazepine-4-carboxylate]
< 1000 nM |  | < 1000 nM | < 1000 nM |  | CCOC(=O)C1=Cc2cc(-c3ccc(C(=O)N4CCCC4)cc3C)ccc2N=C(N)C1 [Compound 3119, Ethyl 2-amino-7-[2-methyl-4-(pyrrolidin-1-ylcarbonyl)phenyl]-3H-1-benzazepine-4-carboxylate]
< 1000 nM |  | < 1000 nM | 1000 to 10000 nM | < 1000 nM | CCOC(=O)C1=Cc2cc(-c3ccccc3Cl)ccc2N=C(N)C1 [Compound 3127, Ethyl 2-amino-7-(2-chlorophenyl)-3H-1-benzazepine-4-carboxylate]
< 1000 nM |  | < 1000 nM |  |  | CCOC(=O)Nc1ccc(-c2ccc3c(c2)C=C(C(=O)OCC)CC(N)=N3)cc1 [Compound 3199, Ethyl 2-amino-7-{4-[(ethoxycarbonyl)amino]phenyl}-3H-1-benzazepine-4-carboxylate]
< 1000 nM | < 1000 nM |  |  |  | CCOC(=O)C1=Cc2cc(C3=CCN(C(=O)OCC)CC3)ccc2N=C(N)C1 [Compound 3202]
< 1000 nM |  | < 1000 nM | < 1000 nM |  | CCOC(=O)C1=Cc2cc(-c3ccccc3OC)ccc2N=C(N)C1 [Compound 3264, Ethyl 2-amino-7-(2-methoxyphenyl)-3H-1-benzazepine-4-carboxylate]

From US9718796B2, “Substituted benzoazepines as toll-like receptor modulators” (VENTIRX PHARMACEUTICALS, INC., priority 2011, dated 2017)
